Test results as given in patent US12213979B2, “Biomarkers of methotrexate-induced immune tolerance” (Genzyme Corporation, priority 2017, dated 2025).
Blank lines part the entries; values can stand above or below the molecule they belong to.

Experiments:
[1] = Spleen weight and spleen cellularity; type: in vivo, mice; details: day 7; rhGAA concurrent with a single cycle of low-dose methotrexate vs rhGAA alone
Protocol: (§1) C57BL/6 (Jackson Laboratory) or C57BL/6NTac (Taconic Biosciences, Inc.) female mice between S and 12 weeks of age were housed and maintained in accordance with the Guide for the Care and Use of Laboratory Animals, under the American Association for Accreditation of Laboratory Animal Care. The Institutional Animal Care and Use Committee approved all animal procedures. […] Subsequent weekly doses of rhGAA (up to 16 weeks) were given 15 minutes after prophylactic intraperitoneal administration of 30 mg/kg diphenhydramine (West-ward Pharmaceutical). The vehicle control or formulation buffer (FB) for rhGAA. was administered similarly to reconstituted rhGAA. Blood was collected by retro-orbital Heeds from anesthetized mice or by terminal bleeds into EDTA anticoagulant Capiject micro collection tubes (Terumo) on wet ice. […]
Anti-mouse antibodies used for flow cytometry include BioLegend antibodies PE-Ter-119 (catalog 116208), PerCP-Cy5.5-CD71 (catalog 113816), PE-Cy7-IgM (catalog 406516), Pacific Blue (PB)-CD86 (catalog 105022) and allophycocyanin-CD45 (catalog 103116). […] Live/dead discrimination was determined by staining with BioLegend Zombie Aqua Fixable Visability Kit. […] Cytometry data was analyzed on Floyd( )software version 10 (FlowJo, LLC). Absolute numbers of cell population were calculated from CountBright Absolute Counting Beads (ThermoFisher Scientific). […]

anti-rhGAA IgG antibody [2] = assay: Serum anti-rhGAA antibody titers by ELISA, dosed control mice; type: in vivo; details: high outlier not removed (data not shown)
Protocol: (§2) C57BL/6 (Jackson Laboratory) or C57BL/6NTac (Taconic Biosciences, Inc.) female mice between S and 12 weeks of age were housed and maintained in accordance with the Guide for the Care and Use of Laboratory Animals, under the American Association for Accreditation of Laboratory Animal Care. The Institutional Animal Care and Use Committee approved all animal procedures. […] Subsequent weekly doses of rhGAA (up to 16 weeks) were given 15 minutes after prophylactic intraperitoneal administration of 30 mg/kg diphenhydramine (West-ward Pharmaceutical). The vehicle control or formulation buffer (FB) for rhGAA. was administered similarly to reconstituted rhGAA. Blood was collected by retro-orbital Heeds from anesthetized mice or by terminal bleeds into EDTA anticoagulant Capiject micro collection tubes (Terumo) on wet ice. Spleens were prepared into single-cell suspension between glass slides with or without RBC lysis. Bone marrow was collected from a single femur on wet ice.
Quantitation of anti-rhGAA antibody titers from mouse serum was measured by ELBA as previously described (holy, Martin et. al. 2014). […] The reaction was stopped by addition of 1 N HCl and absorbance was immediately measured at 450/650 nm on a SpectraMax M2 (Molecular Devices). End-point titers were derived from the reciprocal of the sample dilution resulting in an absorbance value of 0.2.

[3] = tested on: erythroid ankyrin and glycophorin C; assay: Tissue mass spectrometry imaging (tMSI) of spleen; type: in vivo, mice; details: 7 days after rhGAA initiation, methotrexate given together with rhGAA or FB
Protocol: Fresh spleen samples for tMSI were collected in 10% gelatin (Alfa Aesar catalog J62699), frozen en bloc, cut into […] sections, and deposited on indium tin oxide ([…]) glass slides. ITO glass slides were coated with matrix-assisted laser desorption/ionization (MALDI) matrix (α-cyano-4-hydroxycinnamic acid) for tMSI. Mass spectrometry imaging was performed with AB Sciex 4800 MALDI-TOF/TOF, Autoflex MALDI-TOF/TOF and 7T SolariX MALDI-FTICR mass spectrometers. The imaging data sets were analyzed with TissueView, flexlmaging, or Multimaging 1.1 (ImaBiotech).

[4] = Hematology: CBC and reticulocyte count on Sysmex XT2000iV; type: in vivo, mice; details: blood; 7 days after rhGAA initiation; groups with transient low-dose methotrexate (rhGAA or FB)
Protocol: as §2
Samples were collected by retro-orbital bleed into EDTA anticoagulant Capiject micro collection tubes as described above and stored at 2-8° C. for no longer than 72 hours. CBC, WBC differential analysis and reticulocyte count were performed on Sysmex XT2000iV (Sysmex). Histology, immunohistochemistry (IHC)

[5] = tested on: genes associated with erythropoiesis; assay: RNA-sequencing of spleen and PBMC's of treated mice; type: in vivo; details: for transcriptional signatures of erythropoiesis: day 7 after rhGAA initiation, rhGAA in conjunction with low-dose methotrexate
Protocol: Animals were sacrificed on day 7 after rhGAA initiation. Blood was collected by terminal retro-orbital bleeds as described above. Whole blood diluted 1 part in 2 with PBS was layered over Ficoll for the separation of peripheral blood mononuclear cells (PBMC's). Spleens were prepared into single-cell suspension between glass slides. Samples were treated for RBC lysis (BD Pharm Lyse). […] The RNA integrity number (RIN) was evaluated. on an Agilent 2100 bioanalyzer with the RNA 6000 nano kit (Agilent) or RNA 6000 pica kit (Agilent). RNA amplification was performed with the SMARTER™ PCR cDNA Synthesis Kit (Clonetech). Detection of sequencing fragments was performed on the Illumina HiSeq2000 with Illumina sequencing kits. RNA-seq data sets were filtered to remove adaptors and low-quality, reads and assessed for differential expression with a fold change of 2 and p value≤0.05. Differentially expressed genes were annotated and examined through NextBio biological data mining software (Illumina).

[6] = tested on: total RBCs (Ter-119+) and immature, nucleated RBCs (Ter-119+CD71+); assay: Flow cytometry of erythroid cells in blood; type: in vivo, mice
Protocol: as §2
(§3) Anti-mouse antibodies used for flow cytometry include BioLegend antibodies PE-Ter-119 (catalog 116208), PerCP-Cy5.5-CD71 (catalog 113816), PE-Cy7-IgM (catalog 406516), Pacific Blue (PB)-CD86 (catalog 105022) and allophycocyanin-CD45 (catalog 103116). Antibodies from BD Biosciences include FITC-CD44 (catalog 553133), allophycocyanin-CD3 (catalog 550035), allophycocyanin-CD19 or allophycocyanin-Cy7-CD19 (catalog 557655 and 550992), FITC-CD1d (catalog 553843), FITC-CD23 (catalog 553138) and allophycocyanin-Cy7-CD3, (catalog 557596). Live/dead discrimination was determined by staining with BioLegend Zombie Aqua Fixable Visability Kit. Samples were run on a BD FACS Canto II (BD Biosciences) and acquired with BD FACSDiva software. Cytometry data was analyzed on Floyd( )software version 10 (FlowJo, LLC). Absolute numbers of cell population were calculated from CountBright Absolute Counting Beads (ThermoFisher Scientific). Cell types assessed include total RBCs (Ter-119^+), immature, nucleated RBCs (Ter-119^+, CD71^+), mature RBCs (Ter-119^+, […]), proerythrohlasts (Ter-119^intermediate, CD44^high), basophilic erythroblasts (Ter-119^+, CD44^highFSC^high), polychromatic erythroblasts (Ter-119^+, CD44^intermediateFSC^intermediate), orthochromatic erythroblasts and reticulocytes (Ter-119^+, CD44^intermediateFSC^low), mature red blood cells (Ter-119^+, CD44^lowFSC^low), total activated B cells (CD19^+CD86^+), activated follicular B cells (CD19^+, IgM^low/high CD23^+, CD86^+), activated marginal zone B cells (CD19^+, IgM^high CD23^−, CD86^+), and B10 regulatory B cells (CD19^+, CD1d^highCD5^+) (Allman et. al., 2004: Chen et. al., 2009; Koulnis et. al., 2011; Joly et. al., 2014).

[7] = tested on: total RBCs (Ter-119+) and immature, nucleated RBCs (Ter-119+CD71+); assay: Flow cytometry of erythroid cells in spleen; type: in vivo, mice
Protocol: as §2, §3

[8] = tested on: proteins of erythropoiesis related pathways (transferrin receptor 1, transferrin); assay: LC/MS protein mass spectrometry of spleen of treated mice; type: in vivo; details: day 7, rhGAA with vs without transient low-dose methotrexate
Protocol: as §1
Blood was collected by terminal retro-orbital bleeds as described above followed by separation of plasma and PBC by centrifugation. […] Data was analyzed by Progenesis QI for Proteomics (Nonlinear Dynamics) for peak detection. […] Protein quantitation was performed through Progenesis QI for Proteomics. Fold change and p-values were calculated from the average normalized protein abundance data for each experimental group. […] Data were analyzed for enrichment scores in GO processes and other biological categories in MetaCore (Thomson Reuters).

[9] = tested on: total RBCs (Ter-119+) and immature, nucleated RBCs (Ter-119+CD71+); assay: Flow cytometry of erythroid cells in bone marrow; type: in vivo, mice
Protocol: as §2, §3

anti-rhGAA IgG antibody [10] = details: historical data; rhGAA with transient low-dose methotrexate ITI regimen vs rhGAA alone; cited from earlier work
[11] = day 2, CD44/FSC gating, with rhGAA vs rhGAA alone
[12] = day 2, with rhGAA vs rhGAA alone
[13] = day 4, with rhGAA vs rhGAA alone
[14] = day 7, CD44/FSC gating, with rhGAA vs rhGAA alone
[15] = day 7, with rhGAA vs rhGAA alone
[16] = day 9, with rhGAA vs rhGAA alone
[17] = day 4, CD44/FSC gating, with rhGAA vs rhGAA alone
[18] = day 5, with rhGAA vs rhGAA alone
[19] = day 7 and 9, with rhGAA vs rhGAA alone
[20] = day 9, CD44/FSC gating, with rhGAA vs rhGAA alone

transferrin protein level [8]: upregulation
transferrin receptor 1 protein level [8]: upregulation
Molecule: CN(Cc1cnc2nc(N)nc(N)c2n1)c1ccc(C(=O)N[C@@H](CCC(=O)O)C(=O)O)cc1 [methotrexate]
spleen cellularity by flow cytometry [1]: significantly greater
spleen weight [1]: significantly enlarged
rhGAA titers and AUC, difference between dosed control groups (anti-rhGAA IgG antibody [2]): no differences
erythroid ankyrin signal in 10 μM spleen sections [3]: diminished
glycophorin C signal in 10 μM spleen sections [3]: diminished
Hemoglobin content [4]: significantly reduced
Total RBC numbers (CBC) [4]: significantly reduced
frequency and numbers of mature reticulocytes [4]: no observed differences
frequency of the immature reticulocyte fraction (IRF) [4]: significantly enriched
hematocrit [4]: significantly reduced
transcriptional signatures of erythropoiesis ([5]; PBMC's): upregulation of transcriptional signatures of erythropoiesis
TfR1 in the transcriptional data set ([5]; day 7, rhGAA and low-dose methotrexate vs rhGAA alone): upregulation
transcriptional signatures of erythropoiesis ([5]; spleen): upregulation of transcriptional signatures of erythropoiesis
basophilic erythroblasts, orthochromatic erythroblasts, reticulocytes and mature red blood cells [6, 11]: small but significant reduction
immature, nucleated RBCs [6, 12]: significant depletion
total RBCs [6, 12]: significant depletion
immature, nucleated RBCs [6, 13]: nearly absent
immature, nucleated RBCs [6, 14]: no changes
mature RBCs [6, 14]: significant reduction
total RBCs [6, 15]: significantly reduced
immature, nucleated RBCs ([6]; day 7, with rhGAA vs rhGAA alone, Ter-119/CD71 gating): significantly enriched
immature, nucleated RBCs [6, 16]: significantly enriched
total RBCs [6, 16]: significantly enriched
immature, nucleated RBCs ([6]; day 14, with rhGAA vs rhGAA alone): small but significant enrichment
enrichment of immature, nucleated RBCs ([6]; day 28, with rhGAA vs rhGAA alone): absent
total RBCs ([6]; methotrexate alone vs vehicle control): no observed differences
day of peak enrichment of immature, nucleated RBCs [7]: 7 days
time to significant reduction in immature, nucleated RBCs and mature RBCs ([7]; after the first administration of low-dose methotrexate): ≤ 24 h
all stages of early erythroid cells (proerythroblasts, basophilic, polychromatic, orthochromatic erythroblasts and reticulocytes) [7, 11]: significantly diminished
mature RBCs [7, 11]: significantly reduced
immature, nucleated RBCs (Ter-119+CD71+) [7, 12]: nearly complete reduction
total erythroid cells (Ter-119+) [7, 12]: significant reduction
erythroid cells, difference between groups ([7]; day 6, with rhGAA vs rhGAA alone): No differences
mature RBCs [7, 14]: no differences
proerythroblasts, basophilic, polychromatic and orthochromatic erythroblasts and reticulocytes [7, 14]: significant enrichment
immature, nucleated RBCs (Ter-119+CD71+) [7, 15]: significant expansion
total erythroid cells (Ter-119+) [7, 15]: large and significant enrichment
immature, nucleated RBCs (Ter-119+CD71+) [7, 16]: smaller but significant enrichment
total erythroid cells (Ter-119+) [7, 16]: smaller but significant enrichment
erythroid response ([7]; transient low-dose methotrexate alone (with FB)): mimicked that of the group treated with transient low-dose methotrexate together with rhGAA
all stages of early erythroid cells [9, 17]: significant depletion
mature RBCs [9, 17]: no statistically significant differences
immature, nucleated RBCs [9, 13]: significantly reduced
total RBCs [9, 13]: no Differences
all erythroid cell stages, including early and mature RBCs ([9]; day 5, CD44/FSC gating, with rhGAA vs rhGAA alone): Depletion
immature, nucleated RBCs [9, 18]: significantly reduced
total RBCs [9, 18]: significantly reduced
mature RBCs [9, 14]: significantly reduced
proerythroblasts and polychromatic erythroblasts [9, 14]: small but significant enrichment
immature, nucleated RBCs [9, 19]: no differences
total RBCs [9, 19]: no differences
mature RBCs [9, 20]: no differences
proerythroblasts and polychromatic erythroblasts [9, 20]: small but significant enrichment
rhGAA titers and AUC (anti-rhGAA IgG antibody [10]): significantly reduced

Molecule: rhGAA: recombinant human acid-α-glucosidase, enzyme replacement therapy used to treat Pompe disease
erythroid ankyrin signal in 10 μM spleen sections [3]: evenly distributed across the spleen
glycophorin C signal in 10 μM spleen sections [3]: evenly distributed across the spleen
